From patent US6613536B1, “Synthetic peptides and pharmaceutical compositions comprising them for the treatment of systemic lupus erythematosus” (Yeda Research and Development Co. Ltd., priority 1995, dated 2003)
“Also recorded” adds a separate entry of the source.

Assays:
[1] = system: T cell line specific to peptide IIIa of SJL origin; test: Proliferation and cytokine secretion of peptide IIIa-specific T cell line; type: cell-based, mouse
Description: A further test which can be conducted is to test for the ability of the analogs to inhibit cytokine secretion by the T cell line or by T lymphocytes oh lymph nodes of mice that are high responders to SLE-inducing autoantibodies. The cytokines are detected as follows: IL-1 activity is assessed either by ELISA using a pair of capture and detecting antibodies (as described below for IL-4, IL-6, IL-10) or using the LBRM-33(1A5) assay (Conlon, 1983) in which 1A5 cells are stimulated in the presence of phytohemagglutinin (PHA), with either supernatants or recombinant IL-1 at various concentrations to secrete IL-2. […] Stimulation of the CTLL line by IL-2 is measured after 24 hr by incorporation of ^3[H]-thymidine. IL-2 is directly detected using the IL-2 dependent CTLL line or by ELISA. Levels of IL-4, IL-6, IL-10, INFγ and TNFα in the supernatants are determined by ELISA using antibodies to the various cytokines (Phamingen, San Diego, Calif., USA) according to the manufacturer's instructions.
T cell lines and clones specific to the 16/6 Id were established from immunized lymph node cells as previously described (Axelrod and Mozes, 1986). […] At the end of 48 hours incubation, 0.5 μCi of ^3H-thymidine were added for an additional 18 hours, after which cells were harvested and radioactivity was counted. […]

[2] = system: SJL/J and BALB/c mice; test: Anti-RNP, Sm, Ro and La antibodies in sera of immunized mice (ELISA); type: in vivo, mouse; settings: for anti-RNP antibodies in sera / anti-Sm, anti-La and anti-Ro antibodies in sera: BALB/c mice; for anti-RNP, anti-Sm and anti-La antibodies in sera: sera diluted 1:10, compared to normal mice or p278
Description: The same sera of the mice as described in Examples 2 and 3 were used for detection of anti-RNP, Sm, Ro and La antibodies.
Plates were purchased as pre-coated plates and were blocked with 1% ovalbumin in PBS for 2 hr. Thereafter the plates were washed as in Example 2 above, incubated in duplicates with 1:10 diluted sera, washed again and ELISA was carried out as described in Example 2 above.

[3] = system: peripheral blood lymphocytes (PBL); test: IL-2 production by PBL of SLE patients and healthy controls; type: cell-based, human; settings: sample at 24 hr
Description: PBL from human SLE patients and of the appropriate control donors (2×10^5/well) were cultured in microtiter plates in enriched medium containing 10% pooled AB sera in the presence of the human or mouse monoclonal 16/6 Id antibody, in the presence of peptides of the invention or in the presence of phytohemagglutinin (PHA). The rate of proliferation was evaluated by the incorporation of ^3[H]-thymidine in the cell culture. Non-relevant peptides were used as specificity controls. Antigen and mitogen-stimulated cytokine production was quantitated in the supernatants of the above cultures using either the cytokine-dependent lines or the appropriate pairs of antibodies in ELISA assays. Inhibition of the proliferative responses was performed in vitro by adding increasing doses of the tested peptide analogs into the proliferative culture mixtures.
PBL were isolated from blood of SLE patients or healthy controls using ficol gradient, and were incubated as in Example 13. A sample of 50 μl was removed 24 hr after the assay was started, and incubated in the presence of IL-2 sensitive cells (CTLD) for 24 hr, after which ^3H-thymidine was added for 16 hr, and the plates were harvested and counted on a beta counter.

[4] = system: BALB/c mice; test: Neonatal tolerization of BALB/c mice, then autoantibody titers after immunization; type: in vivo, mouse; settings: BALB/c neonates, 100 μg i.p. twice; immunized 6-7 weeks later with peptide Ia or mAb 5G12
Description: In order to either prevent induction of experimental SLE or to cure mice afflicted with the disease, the following procedures were used: (i) Newborn mice were tolerized with a peptide of the invention (100 μg of the peptide in PBS, intraperitoneally at 24 and 72 hours after birth). Six weeks later, the mice were immunized with the pathogenic autoantibody, e.g. 5G12 (16/6 Id+) and examined for disease manifestations; (ii) A first group of adult mice was injected with various concentrations of the peptides before disease induction with the pathogenic autoantibody or pathogenic T cell line; another group was injected with the peptides to be tested for their therapeutic effect six weeks following immunization at the peak of the serological response; and a further group was treated at 4-6 months post-immunization after the establishment of the overt SLE disease. The number of injections with the peptides was determined based on their effect on the disease induction and progression. The effect of the peptide treatment on T cell proliferation, on the autoantibody production and on the disease manifestations was then evaluated.
In order to further elucidate the role of the peptides in SLE, peptide Ia was utilized for the induction of tolerance in BALB/c mice. Newborn mice were injected twice (at day 1 and 3) with either peptide Ia or a control peptide. […]

Substance | cytokine secretion of T cell line upon stimulation [1] | anti-RNP antibodies in sera ([2]; sera diluted 1:10) | anti-Sm, anti-La and anti-Ro antibodies in sera ([2]; sera diluted 1:10) | anti-Ro autoantibodies in sera ([2]; SJL/J mice, sera diluted 1:10) | anti-RNP, anti-Sm and anti-La antibodies in sera ([2]; SJL/J mice) | IL-2 production by PBL, actual number of responders ([3]; SLE patients) | IL-2 production by PBL, percentage of responders ([3]; SLE patients) [%] | IL-2 production by PBL, actual number of responders ([3]; healthy controls) | IL-2 production by PBL, percentage of responders ([3]; healthy controls) [%] | anti-DNA and anti-NE autoantibody titers after neonatal tolerization [4]
YYYCARFLWEPYAMDYWGQGS (YYCARFLWEPYAMDYWGQGS) [peptide IIIa, based on the CDR3 region of the VH chain of mAb 5G12] | secreted the Thl-type cytokines, namely, IL-2, IFNγ and TNFα | very high levels of anti-RNP antibodies | very low levels of anti-Sm, anti-La and anti-Ro antibodies | extremely high levels of anti-Ro autoantibodies | High levels of anti-RNP, anti-Sm and anti-La antibodies | 5/32 | 16 | 16/25 | 64 | 
TGYYMQWVKQSPEKSLEWIG [peptide Ia] |  | very high levels of anti-RNP antibodies | produced detectable antibodies |  | High levels of anti-RNP, anti-Sm and anti-La antibodies | 5/32 | 16 | 14/25 | 56 | did not produce significant titers of antibodies to either DNA or nuclear extract antigens; also recorded: produced lower levels of anti-DNA and anti-NE antibodies
